Test results from the supplement of paper PMC11451515.

Tested on: P12-Ichikawa
Assay: cell viability relative to DMSO control; higher = less cytotoxic
Settings: 48 h
Outline: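 Leukemia cells (NOMO1 or SEM, 500 cells/well; P12-Ichikawa, 1000 cells/well) were seeded in 5 μl in 1536-well plates after at least four passages of adaptation to each medium. They received library compounds in DMSO by pin dosing, 11 threefold points from 47 μM to 0.79 nM. Luminescence with CellTiter-Glo One was read after 48 h at 37°C. Viability is stated per plate relative to DMSO wells, with cell-free wells as background.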

[1] = HPLM + 10% dialyzed FBS, 0.000781 µM
[2] = HPLM + 10% dialyzed FBS, 0.00234 µM
[3] = HPLM + 10% dialyzed FBS, 0.00702 µM
[4] = HPLM + 10% dialyzed FBS, 0.0211 µM
[5] = HPLM + 10% dialyzed FBS, 0.0632 µM
[6] = HPLM + 10% dialyzed FBS, 0.19 µM
[7] = HPLM + 10% dialyzed FBS, 0.569 µM
[8] = HPLM + 10% dialyzed FBS, 1.71 µM
[9] = HPLM + 10% dialyzed FBS, 5.12 µM
[10] = HPLM + 10% dialyzed FBS, 15.4 µM
[11] = HPLM + 10% dialyzed FBS, 46.1 µM
[12] = RPMI 5 mM glucose + 10% FBS, 0.000781 µM
[13] = RPMI 5 mM glucose + 10% FBS, 0.00234 µM
[14] = RPMI 5 mM glucose + 10% FBS, 0.00702 µM
[15] = RPMI 5 mM glucose + 10% FBS, 0.0211 µM
[16] = RPMI 5 mM glucose + 10% FBS, 0.0632 µM
[17] = RPMI 5 mM glucose + 10% FBS, 0.19 µM
[18] = RPMI 5 mM glucose + 10% FBS, 0.569 µM
[19] = RPMI 5 mM glucose + 10% FBS, 1.71 µM
[20] = RPMI 5 mM glucose + 10% FBS, 5.12 µM
[21] = RPMI 5 mM glucose + 10% FBS, 15.4 µM
[22] = RPMI 5 mM glucose + 10% FBS, 46.1 µM
[23] = RPMI 5 mM glucose + 10% dialyzed FBS, 0.000781 µM
[24] = RPMI 5 mM glucose + 10% dialyzed FBS, 0.00234 µM
[25] = RPMI 5 mM glucose + 10% dialyzed FBS, 0.00702 µM
[26] = RPMI 5 mM glucose + 10% dialyzed FBS, 0.0211 µM
[27] = RPMI 5 mM glucose + 10% dialyzed FBS, 0.0632 µM
[28] = RPMI 5 mM glucose + 10% dialyzed FBS, 0.19 µM
[29] = RPMI 5 mM glucose + 10% dialyzed FBS, 0.569 µM
[30] = RPMI 5 mM glucose + 10% dialyzed FBS, 1.71 µM
[31] = RPMI 5 mM glucose + 10% dialyzed FBS, 5.12 µM
[32] = RPMI 5 mM glucose + 10% dialyzed FBS, 15.4 µM
[33] = RPMI 5 mM glucose + 10% dialyzed FBS, 46.1 µM

Row | SMILES | cell viability [1] [%] | cell viability [2] [%] | cell viability [3] [%] | cell viability [4] [%] | cell viability [5] [%] | cell viability [6] [%] | cell viability [7] [%] | cell viability [8] [%] | cell viability [9] [%] | cell viability [10] [%] | cell viability [11] [%] | cell viability [12] [%] | cell viability [13] [%] | cell viability [14] [%] | cell viability [15] [%] | cell viability [16] [%] | cell viability [17] [%] | cell viability [18] [%] | cell viability [19] [%] | cell viability [20] [%] | cell viability [21] [%] | cell viability [22] [%] | cell viability [23] [%] | cell viability [24] [%] | cell viability [25] [%] | cell viability [26] [%] | cell viability [27] [%] | cell viability [28] [%] | cell viability [29] [%] | cell viability [30] [%] | cell viability [31] [%] | cell viability [32] [%] | cell viability [33] [%]
1 | COC1=C2C[C@@H](C)C[C@H](OC)[C@H](O)[C@@H](C)/C=C(\C)[C@H](OC(N)=O)[C@@H](OC)/C=C/C=C(\C)C(=O)NC(=CC1=O)C2=O | 114 | 106 | 116 | 109 | 107 | 113 | 98.6 | 104 | 77.4 | 48.4 | 38.6 | 106 | 109 | 108 | 112 | 108 | 108 | 102 | 90.8 | 80.5 | 51.5 | 27.2 | 116 | 117 | 114 | 111 | 108 | 111 | 108 | 94.4 | 72.2 | 34.2 | 28
2 | Cc1csc(NC(=O)c2sc3nc4c(c(C(F)(F)F)c3c2N)CCC4)n1 | 88.3 | 102 | 98.1 | 98 | 94.4 | 93.8 | 95 | 91.3 | 90.3 | 84.5 | 83.4 | 87.2 | 100 | 94 | 92.1 | 88.6 | 91.1 | 98.7 | 90.1 | 88.1 | 79.2 | 86.5 | 82.7 | 83.3 | 81.6 | 84.3 | 89.4 | 86.4 | 88.6 | 78.2 | 84.9 | 69.9 | 73.6
3 | COC/1=C/C=C2\C(=C/C1=O)[C@H](CCC3=CC(=C(OC)C(=C23)OC)OC)NC(C)=O | 45.1 | 26.4 | 14.5 | 12.8 | 10.9 | 9.53 | 6.89 | 4.02 | 3.71 | 3.18 | 1.19 | 32.3 | 19.7 | 15.6 | 10.3 | 9.46 | 7.35 | 5.7 | 4.23 | 4.86 | 3.24 | 2.12 | 41.3 | 34.3 | 21.5 | 16 | 13.2 | 8.83 | 8.91 | 4.52 | 4.83 | 3.55 | 1.22
4 | CCN(CC)CCCCNc1ncc2c(n1)N(C)C(=O)N(c1c(Cl)c(OC)cc(OC)c1Cl)C2 | 118 | 121 | 120 | 118 | 117 | 115 | 113 | 121 | 114 | 105 | 11.8 | – | – | – | – | – | – | – | – | – | – | – | 120 | 110 | 122 | 119 | 120 | 117 | 106 | 103 | 121 | 90.9 | 22.8
5 | NCCCCNCCCN | 108 | 108 | 115 | 108 | 110 | 121 | 115 | 116 | 109 | 104 | 41.4 | 110 | 109 | 113 | 114 | 114 | 118 | 123 | 118 | 105 | 73.7 | 3.31 | 101 | 102 | 98.4 | 116 | 104 | 111 | 115 | 111 | 115 | 87 | 6.5
6 | COC1=CC=CC(=C1N)\C2=C\C(=O)C3=C(O2)C=CC=C3 | 110 | 122 | 122 | 133 | 128 | 129 | 134 | 129 | 129 | 133 | 120 | – | – | – | – | – | – | – | – | – | – | – | – | – | – | – | – | – | – | – | – | – | –
7 | ClC1=CC\2=C(OC3=C(C=CC=C3)\N=C2N4CCNCC4)C=C1 | 100 | 104 | 113 | 103 | 109 | 101 | 107 | 109 | 99.7 | 98 | 95.5 | 103 | 105 | 107 | 105 | 93.8 | 90.6 | 99.6 | 95.2 | 90.3 | 87.7 | 87.8 | 100 | 102 | 100 | 104 | 99.3 | 99.7 | 99.1 | 92.5 | 89.3 | 98.3 | 88.6
8 | Cn1cc(/C=C2\C(=O)Nc3cccnc32)c2ccccc21 | 116 | 124 | 127 | 121 | 133 | 133 | 124 | 134 | 126 | 15.5 | 16.6 | – | – | – | – | – | – | – | – | – | – | – | – | – | – | – | – | – | – | – | – | – | –
9 | O=C(Nc1ncc(SCCN2CCCC2)s1)[C@]1(c2ccc([S+](=O)([O-])C3CC3)cc2)C[C@H]1C1CCCCC1 | 117 | 115 | 121 | 121 | 116 | 113 | 116 | 108 | 111 | 96.5 | 68.8 | 120 | 120 | 111 | 123 | 108 | 123 | 105 | 112 | 105 | 108 | 43.6 | 111 | 122 | 114 | 121 | 109 | 118 | 120 | 109 | 108 | 88.3 | 35.9
10 | CC[C@@]1(O)C(=O)OCC/2=C1/C=C3\N(CC4=CC5=CC(=CC=C5N=C34)O)C2=O | – | – | – | – | – | – | – | – | – | – | – | 122 | 120 | 117 | 91.5 | 11.4 | 9.55 | 8.05 | 7.2 | 6.2 | 5.86 | 6.96 | 115 | 127 | 106 | 88.7 | 16.9 | 12.1 | 10.2 | 6.53 | 6.88 | 6.54 | 8.98
11 | Cn1c(=O)n(-c2ccc(C(C)(C)C#N)cc2)c2c3cc(-c4cnc5ccccc5c4)ccc3ncc21 | 108 | 120 | 113 | 105 | 110 | 98 | 92.1 | 43.2 | 18.2 | 13.3 | 17.6 | 114 | 108 | 106 | 90.6 | 88.2 | 82.7 | 67.6 | 67.2 | 42.1 | 10.7 | 12.1 | 110 | 117 | 111 | 105 | 101 | 82 | 81.1 | 57 | 33.4 | 15.3 | 16.1
12 | CN1CCC[C@@H]1CCO[C@](C)(c1ccccc1)c1ccc(Cl)cc1 | 94.5 | 100 | 99.3 | 113 | 105 | 104 | 104 | 107 | 112 | 109 | 97.2 | 97.8 | 104 | 106 | 104 | 108 | 98.1 | 104 | 114 | 100 | 119 | 101 | 93.9 | 101 | 111 | 106 | 103 | 100 | 105 | 102 | 104 | 108 | 90
13 | CN(C)CCN(C)C(=O)c1ccc(NC(=O)Nc2ccc(-c3nc(N4CCOCC4)c4ccn(CC(F)(F)F)c4n3)cc2)cc1 | 114 | 120 | 112 | 122 | 106 | 100 | 101 | 89.7 | 90.8 | 90.8 | 83.2 | 115 | 114 | 121 | 118 | 85 | 77.9 | 77.7 | 67.6 | 64.9 | 65.4 | 69.9 | – | – | – | – | – | – | – | – | – | – | –
14 | Nc1cc(C(F)(F)F)c(-c2cc(N3CCOCC3)nc(N3CCOCC3)n2)cn1 | – | – | – | – | – | – | – | – | – | – | – | 111 | 124 | 135 | 137 | 133 | 126 | 94.8 | 67.2 | 15.7 | 13.2 | 7.95 | – | – | – | – | – | – | – | – | – | – | –
15 | CC/1=C(/C(CC(=O)N1)C2=CC=C(C=C2)C(F)(F)F)C(=O)NC3=C(F)C=C4[NH]N=CC4=C3 (stereo not drawn) | 93.5 | 103 | 101 | 102 | 101 | 99.1 | 100 | 97.3 | 98.4 | 58.6 | 44.6 | 96.2 | 104 | 102 | 100 | 108 | 99.9 | 104 | 98.3 | 98.3 | 66.9 | 62 | 95.3 | 99.8 | 99.9 | 101 | 104 | 105 | 107 | 96.9 | 107 | 66.5 | 47.6
16 | Oc1cccc(-c2nc(N3CCOCC3)c3oc4ncccc4c3n2)c1 | 118 | 119 | 123 | 123 | 117 | 121 | 131 | 118 | 116 | 79.2 | 73.3 | 122 | 114 | 132 | 129 | 110 | 102 | 80.8 | 79 | 108 | 94.6 | 75.3 | 121 | 123 | 119 | 126 | 113 | 110 | 98.4 | 81.5 | 114 | 108 | 95.7
17 | C[C@]12CC[C@H]3[C@@H](CCC/4=C/C(=O)CC[C@]34C)[C@@H]1CC[C@@H]2O | 111 | 121 | 121 | 126 | 128 | 124 | 128 | 132 | 126 | 125 | 127 | – | – | – | – | – | – | – | – | – | – | – | – | – | – | – | – | – | – | – | – | – | –
18 | C[C@]12CC[C@@H]3c4ccc(O)cc4CC[C@H]3[C@@H]1C[C@@H](O)[C@@H]2O | 117 | 115 | 114 | 120 | 113 | 111 | 119 | 110 | 112 | 104 | 104 | 120 | 115 | 116 | 114 | 125 | 129 | 126 | 124 | 123 | 108 | 107 | 116 | 120 | 125 | 123 | 115 | 117 | 123 | 118 | 109 | 114 | 105
